Data published in US9403823B2, “Protein kinase inhibitors” (ORIBASE PHARMA, priority 2012, dated 2016).
Read-outs that look alike come from different tables or passages of the source.

Tests used:
HuCCT1 cell line = assay: In vitro cell proliferation assay (MTT), HuCCT1; format: cell-based; settings: Homo sapiens, HuCCT-1; HuCCT1, 72 hr, MTT; read-out: EC50, anti-proliferative activity
Description: (§1) 2) In Vitro Cell Proliferation Assays (Table 22 to Table 35)
(§2) Cancer cell lines (5×10^3 cells per well) or HUVEC (1×10^4 cells per well) or HRMEC (1×10^4 cells per well) were distributed in 96-well plates and incubating in duplicate with escalating concentrations (10 nM to 3 μM) of compounds for 72 hr. Cell proliferation was measured using MTT (3[4,5-dimethylthiazol-2-yl]-2,5-diphenyltetrazolium bromide).

HepG2 cell line = assay: In vitro cell proliferation assay (MTT), HepG2; format: cell-based; settings: Homo sapiens, read-out: EC50, anti-proliferative activity
In short: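 Cancer cell lines were seeded at 5×10^3 cells per well and HRMEC at 1×10^4 cells per well, then incubated in duplicate with escalating compound concentrations (10 nM to 3 μM) for 72 hr. Proliferation was read by MTT.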

HUVEC = assay: In vitro cell proliferation assay (MTT), HUVEC; format: cell-based; settings: Homo sapiens, read-out: EC50, anti-proliferative activity
In short: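 HUVEC cells were plated at 1×10^4 cells per well in 96-well plates and exposed in duplicate to increasing compound concentrations from 10 nM to 3 μM for 72 hr. Proliferation was then quantified with MTT (3[4,5-dimethylthiazol-2-yl]-2,5-diphenyltetrazolium bromide) to determine anti-proliferative activity.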

HuH6 Clone 5 cell line = assay: In vitro cell proliferation assay (MTT), HuH6 Clone 5; format: cell-based; settings: read-out: EC50, anti-proliferative activity
Description: as §1, §2

KDR (VEGFR2) = biological target: T1, KDR (VEGFR2) (Homo sapiens, UniProt P35968); assay: In vitro kinase assay (Z'-LYTE), KDR (VEGFR2); format: biochemical; settings: read-out: % of inhibition of the kinase compared to the control
T1 construct: purchased Invitrogen
T1 sequence (P35968 20-1356): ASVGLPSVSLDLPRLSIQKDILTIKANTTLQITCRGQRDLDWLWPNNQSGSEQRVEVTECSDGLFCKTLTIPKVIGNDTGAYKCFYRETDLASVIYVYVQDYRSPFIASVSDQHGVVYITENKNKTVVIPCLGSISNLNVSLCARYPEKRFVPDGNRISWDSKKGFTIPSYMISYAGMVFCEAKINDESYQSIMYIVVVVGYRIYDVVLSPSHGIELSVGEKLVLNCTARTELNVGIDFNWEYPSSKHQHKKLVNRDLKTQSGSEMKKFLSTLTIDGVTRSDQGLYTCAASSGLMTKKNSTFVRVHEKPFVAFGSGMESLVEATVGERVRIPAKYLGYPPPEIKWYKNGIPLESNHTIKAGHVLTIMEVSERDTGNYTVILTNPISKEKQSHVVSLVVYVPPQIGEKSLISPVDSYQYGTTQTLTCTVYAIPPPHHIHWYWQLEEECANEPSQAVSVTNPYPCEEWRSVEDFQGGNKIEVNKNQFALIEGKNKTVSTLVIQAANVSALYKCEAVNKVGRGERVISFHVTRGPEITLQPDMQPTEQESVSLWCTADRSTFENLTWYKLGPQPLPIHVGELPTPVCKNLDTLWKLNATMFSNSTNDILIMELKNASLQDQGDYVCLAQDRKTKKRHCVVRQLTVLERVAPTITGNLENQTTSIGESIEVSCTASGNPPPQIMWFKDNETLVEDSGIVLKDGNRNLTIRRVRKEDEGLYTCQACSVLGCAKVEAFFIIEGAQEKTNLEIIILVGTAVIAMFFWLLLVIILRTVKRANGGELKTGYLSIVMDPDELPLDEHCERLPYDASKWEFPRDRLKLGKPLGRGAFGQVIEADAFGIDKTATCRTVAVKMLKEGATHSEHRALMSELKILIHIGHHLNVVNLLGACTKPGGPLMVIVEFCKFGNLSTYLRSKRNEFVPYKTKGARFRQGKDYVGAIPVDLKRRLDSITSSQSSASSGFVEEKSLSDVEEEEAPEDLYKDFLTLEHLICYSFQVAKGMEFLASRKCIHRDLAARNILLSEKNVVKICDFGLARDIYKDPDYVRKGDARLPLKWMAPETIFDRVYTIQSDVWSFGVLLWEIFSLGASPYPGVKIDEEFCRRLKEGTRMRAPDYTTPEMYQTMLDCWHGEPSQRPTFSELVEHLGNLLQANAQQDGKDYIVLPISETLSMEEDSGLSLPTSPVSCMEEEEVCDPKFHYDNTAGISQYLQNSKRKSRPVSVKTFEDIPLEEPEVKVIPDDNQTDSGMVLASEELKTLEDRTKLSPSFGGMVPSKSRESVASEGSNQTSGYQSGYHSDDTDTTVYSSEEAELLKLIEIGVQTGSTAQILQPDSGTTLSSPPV
In short: (§3)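 FRET-based Z'-LYTE coupled-enzyme assay: kinase phosphorylates a dual-fluorophore peptide, unphosphorylated peptide is protease-cleaved, and donor/acceptor emission ratio after 400 nm excitation quantifies progress. Buffer 50 mM HEPES pH 7.5, 10 mM MgCl2, 1 mM EGTA, 0.01% BRIJ-35; 1% DMSO final. Single compound concentration: 100 nM, or 10 μM for ABL and ABL T315I.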

A549 cell line = assay: In vitro cell proliferation assay (MTT), A549; format: cell-based; settings: Homo sapiens, read-out: EC50, anti-proliferative activity
Description: as §1, §2

HuH7 cell line = assay: In vitro cell proliferation assay (MTT), HuH7; format: cell-based; settings: Homo sapiens, read-out: EC50, anti-proliferative activity
Description: as §1, §2

BRAF = biological target: T2, BRAF (Homo sapiens, UniProt P15056); assay: In vitro kinase assay (Z'-LYTE), BRAF; format: biochemical; settings: read-out: % of inhibition of the kinase compared to the control
T2 construct: purchased Invitrogen
In short: as §3

PDGFRA (PDGFR alpha) = biological target: T3, PDGFRA (PDGFR alpha) (Homo sapiens, UniProt P16234); assay: In vitro kinase assay (Z'-LYTE), PDGFRA; format: biochemical; settings: read-out: % of inhibition of the kinase compared to the control
T3 construct: purchased Invitrogen
T3 sequence (P16234 24-1089): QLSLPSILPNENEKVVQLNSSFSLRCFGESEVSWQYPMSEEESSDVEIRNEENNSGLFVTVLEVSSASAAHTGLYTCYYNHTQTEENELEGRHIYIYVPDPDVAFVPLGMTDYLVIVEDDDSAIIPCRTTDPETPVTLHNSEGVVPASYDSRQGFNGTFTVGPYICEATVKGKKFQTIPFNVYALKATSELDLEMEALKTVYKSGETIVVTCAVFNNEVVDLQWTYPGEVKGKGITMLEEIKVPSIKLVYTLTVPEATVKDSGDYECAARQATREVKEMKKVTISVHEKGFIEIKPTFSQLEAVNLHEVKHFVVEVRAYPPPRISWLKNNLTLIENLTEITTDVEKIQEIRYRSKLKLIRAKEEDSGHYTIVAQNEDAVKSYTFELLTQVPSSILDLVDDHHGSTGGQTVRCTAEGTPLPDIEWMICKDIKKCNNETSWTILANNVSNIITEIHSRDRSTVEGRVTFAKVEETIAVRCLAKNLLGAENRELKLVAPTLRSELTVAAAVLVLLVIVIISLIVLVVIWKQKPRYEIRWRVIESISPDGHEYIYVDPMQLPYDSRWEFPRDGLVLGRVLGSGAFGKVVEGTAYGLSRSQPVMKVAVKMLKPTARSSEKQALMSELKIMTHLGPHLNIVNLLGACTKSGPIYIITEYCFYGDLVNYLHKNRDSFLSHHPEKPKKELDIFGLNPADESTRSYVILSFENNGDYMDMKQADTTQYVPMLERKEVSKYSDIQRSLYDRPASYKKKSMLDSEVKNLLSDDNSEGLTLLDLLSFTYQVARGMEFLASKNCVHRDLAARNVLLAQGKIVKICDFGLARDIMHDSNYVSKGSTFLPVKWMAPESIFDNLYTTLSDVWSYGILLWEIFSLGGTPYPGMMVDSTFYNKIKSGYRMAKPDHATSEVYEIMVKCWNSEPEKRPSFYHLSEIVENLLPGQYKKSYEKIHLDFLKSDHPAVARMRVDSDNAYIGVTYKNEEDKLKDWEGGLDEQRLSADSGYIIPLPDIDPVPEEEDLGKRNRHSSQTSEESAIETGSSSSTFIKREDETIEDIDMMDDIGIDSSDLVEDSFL
In short: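 Z'-LYTE, HEPES pH 7.5/MgCl2/EGTA/BRIJ-35 buffer, 1% DMSO; cpd 100 nM (ABL, ABL T315I: 10 μM); ratiometric FRET read-out after protease development; % inhibition.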

EGFR (ErbB1) = biological target: T4, EGFR (ErbB1) (Homo sapiens, UniProt P00533); assay: In vitro kinase assay (Z'-LYTE), EGFR (ErbB1); format: biochemical; settings: read-out: % of inhibition of the kinase compared to the control
T4 construct: purchased Invitrogen
T4 sequence (P00533 25-1210): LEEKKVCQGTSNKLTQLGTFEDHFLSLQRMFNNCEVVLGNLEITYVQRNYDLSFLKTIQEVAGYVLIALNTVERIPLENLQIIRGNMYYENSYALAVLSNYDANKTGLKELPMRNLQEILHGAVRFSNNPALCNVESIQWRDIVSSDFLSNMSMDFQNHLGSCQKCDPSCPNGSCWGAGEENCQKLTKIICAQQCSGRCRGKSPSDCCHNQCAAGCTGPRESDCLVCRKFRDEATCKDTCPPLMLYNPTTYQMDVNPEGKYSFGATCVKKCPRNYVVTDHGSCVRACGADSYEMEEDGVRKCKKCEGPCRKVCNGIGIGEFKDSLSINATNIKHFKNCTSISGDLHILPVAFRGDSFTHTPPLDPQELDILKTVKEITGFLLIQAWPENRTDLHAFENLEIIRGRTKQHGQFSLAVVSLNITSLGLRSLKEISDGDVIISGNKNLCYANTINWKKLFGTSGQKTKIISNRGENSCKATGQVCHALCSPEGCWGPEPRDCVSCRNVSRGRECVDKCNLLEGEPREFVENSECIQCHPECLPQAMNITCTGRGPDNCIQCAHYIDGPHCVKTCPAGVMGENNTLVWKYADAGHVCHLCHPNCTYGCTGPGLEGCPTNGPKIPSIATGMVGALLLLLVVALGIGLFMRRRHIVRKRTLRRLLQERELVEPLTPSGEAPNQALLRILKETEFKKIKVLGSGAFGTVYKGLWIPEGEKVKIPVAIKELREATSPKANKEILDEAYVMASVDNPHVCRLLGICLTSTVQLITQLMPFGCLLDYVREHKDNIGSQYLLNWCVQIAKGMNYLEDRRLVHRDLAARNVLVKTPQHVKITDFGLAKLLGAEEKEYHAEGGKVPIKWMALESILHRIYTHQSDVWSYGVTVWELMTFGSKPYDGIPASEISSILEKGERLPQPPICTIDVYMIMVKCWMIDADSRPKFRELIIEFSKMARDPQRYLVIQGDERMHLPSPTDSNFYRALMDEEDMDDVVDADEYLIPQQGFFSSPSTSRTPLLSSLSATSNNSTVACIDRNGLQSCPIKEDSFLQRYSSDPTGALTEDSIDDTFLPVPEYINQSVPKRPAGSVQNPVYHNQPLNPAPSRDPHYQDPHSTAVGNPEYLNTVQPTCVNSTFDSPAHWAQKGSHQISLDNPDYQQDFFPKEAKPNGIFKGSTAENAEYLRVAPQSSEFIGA
In short: as §3

FGFR2 = biological target: T5, FGFR2 (Homo sapiens, UniProt P21802); assay: In vitro kinase assay (Z'-LYTE), FGFR2; format: biochemical; settings: read-out: % of inhibition of the kinase compared to the control
T5 construct: purchased Invitrogen
T5 sequence (P21802 22-821): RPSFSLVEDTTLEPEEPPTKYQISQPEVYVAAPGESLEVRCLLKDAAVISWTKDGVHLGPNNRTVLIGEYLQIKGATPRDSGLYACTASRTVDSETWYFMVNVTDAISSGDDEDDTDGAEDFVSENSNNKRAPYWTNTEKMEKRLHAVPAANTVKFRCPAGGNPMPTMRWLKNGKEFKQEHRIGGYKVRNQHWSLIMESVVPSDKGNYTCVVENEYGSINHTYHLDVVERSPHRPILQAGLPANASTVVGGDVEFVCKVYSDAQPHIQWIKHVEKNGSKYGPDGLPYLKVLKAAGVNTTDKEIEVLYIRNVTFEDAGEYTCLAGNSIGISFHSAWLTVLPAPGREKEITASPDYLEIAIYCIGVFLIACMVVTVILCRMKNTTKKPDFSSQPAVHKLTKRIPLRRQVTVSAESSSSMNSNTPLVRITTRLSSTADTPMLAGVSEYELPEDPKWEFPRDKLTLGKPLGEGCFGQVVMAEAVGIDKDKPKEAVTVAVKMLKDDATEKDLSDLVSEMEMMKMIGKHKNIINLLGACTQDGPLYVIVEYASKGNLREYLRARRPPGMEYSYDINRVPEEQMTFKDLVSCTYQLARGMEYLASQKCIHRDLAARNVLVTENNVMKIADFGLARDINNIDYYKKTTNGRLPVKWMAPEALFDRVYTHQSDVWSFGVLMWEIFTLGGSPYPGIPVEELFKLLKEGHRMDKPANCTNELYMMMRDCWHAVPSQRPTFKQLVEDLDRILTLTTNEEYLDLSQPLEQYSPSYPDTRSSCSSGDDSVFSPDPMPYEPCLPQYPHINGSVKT
In short: as §3

SRC = biological target: T6, SRC (Homo sapiens, UniProt P12931); assay: In vitro kinase assay (Z'-LYTE), SRC; format: biochemical; settings: read-out: % of inhibition of the kinase compared to the control
T6 construct: purchased Invitrogen
T6 sequence (P12931 whole entry): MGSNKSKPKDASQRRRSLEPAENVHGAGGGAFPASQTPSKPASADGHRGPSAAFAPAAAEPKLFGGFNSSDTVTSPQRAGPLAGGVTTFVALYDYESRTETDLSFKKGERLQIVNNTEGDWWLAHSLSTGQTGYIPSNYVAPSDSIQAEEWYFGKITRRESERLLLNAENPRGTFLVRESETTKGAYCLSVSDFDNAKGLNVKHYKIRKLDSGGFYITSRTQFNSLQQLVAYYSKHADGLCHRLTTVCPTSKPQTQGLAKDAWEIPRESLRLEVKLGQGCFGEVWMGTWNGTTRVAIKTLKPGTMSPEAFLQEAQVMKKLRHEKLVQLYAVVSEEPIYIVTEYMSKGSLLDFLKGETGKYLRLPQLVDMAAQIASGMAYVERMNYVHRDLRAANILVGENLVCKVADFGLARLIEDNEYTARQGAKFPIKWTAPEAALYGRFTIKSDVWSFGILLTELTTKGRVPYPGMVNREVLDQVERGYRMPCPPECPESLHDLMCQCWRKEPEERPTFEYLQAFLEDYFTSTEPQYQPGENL
In short: as §3

EGFR (ErbB1) T790M L858R = biological target: T7, EGFR (ErbB1) T790M L858R (Homo sapiens, UniProt P00533, L858R/T790M); assay: In vitro kinase assay (Z'-LYTE), EGFR (ErbB1) T790M L858R; format: biochemical; settings: read-out: % of inhibition of the kinase compared to the control
T7 construct: purchased Invitrogen
Description: 1) In Vitro Kinase Assays (Table 10 to Table 21)
The inhibitory activity of the compounds on several kinases including BRAF, EGFR (ErbB1), EGFR (ErbB1) T790M L858R, FGFR2, KDR (VEGFR2), PDGFRA (PDGFR alpha), SRC and other was evaluated by Invitrogen using the Z′-LYTE® technology. Briefly, the Z′-LYTE® biochemical assay employs a fluorescence-based, coupled-enzyme format and is based on the differential sensitivity of phosphorylated and non-phosphorylated peptides to proteolytic cleavage. The peptide substrate is labeled with two fluorophores—one at each end—that make up a FRET pair. A ratiometric method, which calculates the ratio (the Emission Ratio) of donor emission to acceptor emission after excitation of the donor fluorophore at 400 nm, is used to quantitate reaction progress.
The compounds are screened in 1% DMSO (final) in the well. For 10 point titrations, 3-fold serial dilutions are conducted from the starting concentration. All Peptide/Kinase Mixtures are diluted to a 2× working concentration in the appropriate Kinase Buffer. All ATP Solutions are diluted to a 4× working concentration in Kinase Buffer (50 mM HEPES pH 7.5, 0.01% BRIJ-35, 10 mM MgCl2, 1 mM EGTA). ATP Km apparent is previously determined using a Z′-LYTE® assay.
Each compound was incubated at a concentration of 100 nM (excepted to test the activity against ABL and ABL T315I for which the compounds were incubated at a concentration of 10 μM) and the tables 10 to 21 summarize the results obtained showing the inhibitory power of a compound.

HT29 cell line = assay: In vitro cell proliferation assay (MTT), HT29; format: cell-based; settings: Homo sapiens, HT-29; HT29, 72 hr, MTT; read-out: EC50, anti-proliferative activity
Description: as §1, §2

H1975 cell line = assay: In vitro cell proliferation assay (MTT), H1975; format: cell-based; settings: Homo sapiens, read-out: EC50, anti-proliferative activity
Description: as §1, §2

MDA-MB-231 cell line = assay: In vitro cell proliferation assay (MTT), MDA-MB-231; format: cell-based; settings: Homo sapiens, MDA-MB-231, 72 h; read-out: EC50, anti-proliferative activity
Description: as §1, §2

HRMEC cells = assay: In vitro cell proliferation assay (MTT), HRMEC; format: cell-based; settings: 72 h, read-out: EC50, anti-proliferative activity
Description: as §1, §2

HeLa cell line = assay: In vitro cell proliferation assay (MTT), HeLa; format: cell-based; settings: Homo sapiens, 72 hr, MTT, read-out: EC50, anti-proliferative activity
Description: as §1, §2

[1] = HUH-6-clone5, HuH6 Clone 5, 72 hr, MTT

| Compound | EC50 (HuCCT1 cell line) [nM] | EC50 (HepG2 cell line; HepG2, 72 hr, MTT) [nM] | EC50 (HUVEC; 72 hr, MTT) [nM] | inhibition at 0.1 µM (KDR (VEGFR2)) [%] | EC50 (A549 cell line; A549, 72 hr, MTT) [nM] | EC50 (HuH7 cell line; Huh-7, HuH7, 72 hr, MTT) [nM] | inhibition at 0.1 µM (BRAF) [%] | inhibition at 0.1 µM (PDGFRA (PDGFR alpha)) [%] | inhibition at 0.1 µM (EGFR (ErbB1)) [%] | inhibition at 0.1 µM (FGFR2) [%] | inhibition at 0.1 µM (SRC) [%] | inhibition at 0.1 µM (EGFR (ErbB1) T790M L858R) [%] | EC50 (HT29 cell line) [nM] | EC50 (HuH6 Clone 5 cell line; [1]) [nM] | other results |
| --- | --- | --- | --- | --- | --- | --- | --- | --- | --- | --- | --- | --- | --- | --- | --- |
| Cc1nc(Nc2ncc(C(=O)Nc3c(C)cccc3Cl)s2)cc(N2CCN(CCO)CC2)n1 [Dasatinib, reference compound] | ≥ 1000 | ≥ 1000 |  |  |  |  |  |  |  |  |  |  |  |  |  |
| CNC(=O)c1cc2cc(NCc3cc(NC(=O)c4ccc(CN5CCN(C)CC5)cc4)ccc3C)cnc2[nH]1 [OR0753, 5-{2-Methyl-5-[4-(4-methyl-piperazin-1-ylmethyl)-benzoylamino]-benzylamino}-1H-pyrrolo[2,3-b]pyridine-2-carboxylic acid methylamide] | ≥ 1000 | ≥ 1000 | ≥ 1000 | ≥ 50 | ≥ 1000 | ≥ 1000 | ≥ 50 | ≥ 50 | ≥ 50 | < 50 | ≥ 50 | ≥ 50 |  |  | EC50 (HuH6 Clone 5 cell line; HUH-6-clone5, 72 h): 100 to 1000 nM |
| CC(=O)c1cc2cc(NC(=O)c3cc(NC(=O)c4ccc(CN5CCN(C)CC5)cc4)ccc3C)cnc2[nH]1 [OR0780, N-(2-Acetyl-1H-pyrrolo[2,3-b]pyridin-5-yl)-2-methyl-5-[4-(4-methyl-piperazin-1-ylmethyl)-benzoylamino]-benzamide] |  |  | ≥ 1000 | < 50 | ≥ 1000 |  | < 50 | ≥ 50 | < 50 | < 50 | < 50 | < 50 | ≥ 1000 |  | EC50 (H1975 cell line; NCI-H1975, H1975, 72 hr, MTT): ≥ 1000 nM |
| CC(=O)c1cc2cc(NC(=O)c3cc(NC(=O)c4ccc(CN5CCN(C)CC5)c(C(F)(F)F)c4)ccc3C)cnc2[nH]1 [OR0781, N-(2-Acetyl-1H-pyrrolo[2,3-b]pyridin-5-yl)-2-methyl-5-[4-(4-methyl-piperazin-1-ylmethyl)-3-trifluoromethyl-benzoylamino]-benzamide] | ≥ 1000 | ≥ 1000 |  | ≥ 50 | ≥ 1000 |  | ≥ 50 | ≥ 50 | ≥ 50 | ≥ 50 | ≥ 50 | ≥ 50 | ≥ 1000 | ≥ 1000 | EC50 (HUVEC; 72 h): 100 to 1000 nM; EC50 (HuH7 cell line; Huh-7, 72 h): 100 to 1000 nM; EC50 (H1975 cell line; NCI-H1975, 72 h): 100 to 1000 nM |
| CC(=O)c1cc2cc(NC(=O)c3cc(NC(=O)c4ccc(CN5CCC(N(C)C)C5)c(C(F)(F)F)c4)ccc3C)cnc2[nH]1 (stereo not shown) [OR0782, N-(2-Acetyl-1H-pyrrolo[2,3-b]pyridin-5-yl)-2-methyl-5-[4-(3-dimethylamino-pyrrolidin-1-ylmethyl)-3-trifluoromethyl-benzoylamino]-benzamide] | ≥ 1000 | ≥ 1000 | ≥ 1000 | ≥ 50 | ≥ 1000 | ≥ 1000 | < 50 | ≥ 50 | ≥ 50 | ≥ 50 | ≥ 50 | < 50 | ≥ 1000 | ≥ 1000 | EC50 (H1975 cell line; NCI-H1975, H1975, 72 hr, MTT): ≥ 1000 nM |
| CNC(=O)c1cc2cc(NCc3cc(NC(=O)c4ccc(CN5CC[C@H](N(C)C)C5)c(C(F)(F)F)c4)ccc3C)cnc2[nH]1 [OR0813, 5-{5-[4-((S)-3-Dimethylamino-pyrrolidin-1-ylmethyl)-3-trifluoromethyl-benzoylamino]-2-methyl-benzylamino}-1H-pyrrolo-[2,3-b]pyridine-2-carboxylic acid methylamide] |  |  |  | ≥ 50 |  |  | ≥ 50 |  | ≥ 50 | ≥ 50 |  |  |  |  | EC50 (HUVEC; 72 h): ≤ 100 nM; EC50 (MDA-MB-231 cell line): 100 to 1000 nM; EC50 (A549 cell line; A549, 72 h): ≤ 100 nM; EC50 (HepG2 cell line; HepG2, 72 h): ≤ 100 nM; EC50 (HRMEC cells): 100 to 1000 nM; EC50 (HeLa cell line): ≥ 1000 nM |
| CNC(=O)c1cc(Oc2ccc(NC(=O)Nc3ccc(Cl)c(C(F)(F)F)c3)cc2)ccn1 [Sorafenib, reference compound] | 1000 to 3000 | 1000 to 3000 |  |  |  | 1000 to 3000 |  |  |  |  |  |  |  | 1000 to 3000 |  |
